Results taken from patent US6380181B1, “Synthetic catechol derivatives, method for production and use thereof” (priority 1996, dated 2002).
Converted amounts (≈) assume the structure as drawn.

Experiments:
Type in all cases: cell-based
[1] = tested on: Pseudomonas aeruginosa SG 137 (carbenicillin-resistant); assay: Agar diffusion test; settings: concentration 100 μg/ml; P. aeruginosa SG 137
[2] = tested on: Pseudomonas aeruginosa KW 799 WT (wild type); assay: Agar diffusion test; settings: concentration 100 μg/ml; P. aeruginosa KW799/WT
[3] = tested on: Pseudomonas aeruginosa KW 799/61 (penetration mutant); settings: concentration 100 μg/ml; P. aeruginosa KW799/61
[4] = tested on: Pseudomonas aeruginosa ATCC 27853 (wild type); assay: Agar diffusion test; settings: concentration 100 μg/ml; P. aeruginosa ATCC 27853
[5] = tested on: Pseudomonas aeruginosa ATCC 9027 (wild type); assay: Agar diffusion test; settings: concentration 100 μg/ml; P. aeruginosa ATCC 9027
[6] = tested on: Pseudomonas aeruginosa NCTC 10662; assay: Agar diffusion test; settings: concentration 100 μg/ml; P. aeruginosa NCTC 10662
[7] = tested on: Pseudomonas aeruginosa NCTC 10701; assay: Agar diffusion test; settings: concentration 100 μg/ml; P. aeruginosa NCTC 10701
[8] = tested on: Pseudomonas aeruginosa NPS1 (plasmid-coded β-lactamase); settings: concentration 100 μg/ml; P. aeruginosa NPS 1
[9] = tested on: Pseudomonas aeruginosa Oxa6 (plasmid-coded β-lactamase); settings: concentration 100 μg/ml; P. aeruginosa OXA 6
[10] = tested on: E. coli DC2 (penetration mutant); settings: concentration 100 μg/ml
[11] = tested on: E. coli DC0 (wild type); assay: Agar diffusion test; settings: concentration 100 μg/ml
[12] = tested on: Klebsiella pneumoniae ATCC 10031; assay: Agar diffusion test; settings: concentration 100 μg/ml
[13] = tested on: Klebsiella pneumoniae SG 117; assay: Agar diffusion test; settings: concentration 100 μg/ml
[14] = tested on: Stenotrophomonas maltophilia GN 12873; assay: Agar diffusion test; settings: concentration 100 μg/ml
[15] = tested on: Stenotrophomonas maltophilia IMET 10402; assay: Agar diffusion test; settings: concentration 100 μg/ml
[16] = tested on: Salmonella gallinarum ATCC 9184; settings: concentration 100 μg/ml; Salmonella galinarum ATCC 9184
[17] = tested on: E. coli ATCC 25922; assay: Microdilution test (MIC); settings: Escherichia coli, ATCC25922
Protocol: (§1) The minimum inhibiting concentrations (MICs) were determined for the following bacterial strains: Pseudomonas aeruginosa NCTC 10701, NCTC 10662, SG 137, ATCC 27853, KW 799 WT and KW 799/61, E. coli DCO, DC2 and ATCC 25922, Serratia marcescens SG 621; Salmonella gallinarum ATCC 9184, Klebsiella pneumoniae ATCC 10031 and SG 117.

[18] = tested on: Klebsiella pneumoniae ATCC 10031; assay: Microdilution test (MIC); settings: ATCC10031
Protocol: as §1

[19] = tested on: Klebsiella pneumoniae SG 117; assay: Microdilution test (MIC); settings: SG117
Protocol: as §1

[20] = tested on: Pseudomonas aeruginosa ATCC 27853; assay: Microdilution test (MIC); settings: Pseudomonas aeruginosa, ATCC27853; P. aeruginosa ATCC 27853
Protocol: as §1

[21] = tested on: Pseudomonas aeruginosa NCTC 10662; assay: Microdilution test (MIC); settings: Pseudomonas aeruginosa, NCTC10662; P. aeruginosa NCTC 10662
Protocol: as §1

[22] = tested on: Pseudomonas aeruginosa NCTC 10701; assay: Microdilution test (MIC); settings: Pseudomonas aeruginosa, NCTC10701; P. aeruginosa NCTC 10701
Protocol: as §1

[23] = tested on: Pseudomonas aeruginosa SG 137; assay: Microdilution test (MIC); settings: Pseudomonas aeruginosa, SG137; P. aeruginosa SG 137
Protocol: as §1

[24] = tested on: Serratia marcescens SG 621; assay: Microdilution test (MIC); settings: SG621
Protocol: as §1

[25] = tested on: E. coli DC0; assay: Microdilution test (MIC); settings: Escherichia coli, DC0, read-out: MIC values, microdilution test
Summary of the method: (§2)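 Broth microdilution MIC determination; paired strains (Pseudomonas KW 799 WT vs /61, E. coli DC0 vs DC2) used to assess the effect of improved penetration capacity on compound efficacy.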

[26] = tested on: Pseudomonas aeruginosa KW 799 WT; assay: Microdilution test (MIC); settings: Pseudomonas aeruginosa, KW799WT; P. aeruginosa KW 799/WT
Summary of the method: as §2

[27] = tested on: Pseudomonas aeruginosa KW 799/61; assay: Microdilution test (MIC); settings: Pseudomonas aeruginosa, KW799/61; P. aeruginosa KW 799/61
Summary of the method: as §2

[28] = tested on: E. coli DC2; assay: microbe, parasite or virus in culture; settings: Escherichia coli, read-out: MIC values, microdilution test
Summary of the method: as §2

[29] = tested on: Salmonella gallinarum ATCC 9184; assay: microbe, parasite or virus in culture; settings: Salmonella enterica; Salmonella gallinarum ATCC9184; read-out: MIC values, microdilution test
Protocol: as §1

[30] = tested on: Stenotrophomonas maltophilia GN 12873; assay: Microdilution test (MIC); settings: GN12873
[31] = tested on: E. coli mutant KB4 ompF−
Excerpt: (§3) The efficacy against β-lactamase formers and against multi-resistant germs is therefore due to a new type of mechanism for overcoming the penetration resistance, by means of which the ratio of active ingredient to enzyme in the bacterial cell is influenced so that not all antibiotic molecules are inactivated before they reach their target.

[32] = tested on: E. coli mutant KB5 ompC−
Excerpt: as §3

[33] = tested on: E. coli mutant PLB3268 ompF++; settings: E. coli mutant PLB3268 ompF++ (ompF super-expressed)
Excerpt: as §3
PLB268: ompF- was super-expressed.

[34] = tested on: E. coli mutant BR185 tonB−
[35] = tested on: E. coli AB2847 tonB+

## CC1(C)S[C@@H]2[C@H](NC(=O)[C@H](NC(=O)N3CCNC3=O)c3ccccc3)C(=O)N2[C@H]1C(=O)O [Azlocillin, reference compound]
[1]
  inhibition spot diameter in the agar diffusion test: 17 mm
[2]
  inhibition spot diameter in the agar diffusion test: 27 mm
[3]
  inhibition spot diameter in the agar diffusion test: 40 mm
[4]
  inhibition spot diameter in the agar diffusion test: 19 mm
[5]
  inhibition spot diameter in the agar diffusion test: 15 mm
[6]
  inhibition spot diameter in the agar diffusion test: 17 mm
[7]
  inhibition spot diameter in the agar diffusion test: 27 mm
[8]
  inhibition spot diameter in the agar diffusion test: 0 mm
[9]
  inhibition spot diameter in the agar diffusion test: 0 mm
[10]
  inhibition spot diameter in the agar diffusion test: 33 mm
[11]
  inhibition spot diameter in the agar diffusion test: 16 mm
[12]
  inhibition spot diameter in the agar diffusion test: 15 mm
[13]
  inhibition spot diameter in the agar diffusion test: 18 mm
[14]
  inhibition spot diameter in the agar diffusion test: 0 mm
[15]
  inhibition spot diameter in the agar diffusion test: 21 mm
[16]
  inhibition spot diameter in the agar diffusion test: 21 mm
[17]
  MIC: 6.25 µg/mL (≈ 13.5 µM)
[18]
  MIC: 6.25 µg/mL (≈ 13.5 µM)
[19]
  MIC: 6.25 µg/mL (≈ 13.5 µM)
[20]
  MIC: 6.25 µg/mL (≈ 13.5 µM)
[21]
  MIC: 6.25 µg/mL (≈ 13.5 µM)
[22]
  MIC: 0.2 µg/mL (≈ 0.433 µM)
[23]
  MIC: 6.25 µg/mL (≈ 13.5 µM)
[24]
  MIC: 50 µg/mL (≈ 108 µM)
[25]
  MIC: 12.5 µg/mL (≈ 27.1 µM)
[26]
  MIC: 3.12 µg/mL (≈ 6.76 µM)
[27]
  MIC: 0.2 µg/mL (≈ 0.433 µM)
[28]
  MIC: 0.78 µg/mL (≈ 1.69 µM)
[29]
  MIC: 3.12 µg/mL (≈ 6.76 µM)
[30]
  MIC: 25 to 100 µg/mL (≈ 54.2 to 217 µM)
[31]
  inhibition spot diameter in agar diffusion test: 6.5 mm
[32]
  inhibition spot diameter in agar diffusion test: 4 mm
[33]
  inhibition spot diameter in agar diffusion test: 17.5 mm
[34]
  inhibition spot diameter in agar diffusion test: 8 mm
[35]
  inhibition spot diameter in agar diffusion test: 8 mm
